Results reported in patent publication US5070210A, “Novel ketenimines as intermediates for insecticides” (ICI Americas Inc., priority 1990, dated 1991).

How the values were obtained:
Type in all cases: in vivo
[1] = system: Maize weevil [Sitophilus Zeamais (Motschulsky)]; assay: Maize weevil insecticidal test; conditions: adult weevils, percent in solution; 48 hours
Description: The compounds in Tables 1 and 2 above were tested for insecticidal activity using the following testing procedures. LC50 values, based on the results of these tests and calculated according to dosage-mortality curves, are expressed in Table 3.
Maize weevil [Sitophilus Zeamais (Motschulsky)]:
Test compounds were diluted in a 50:50 acetone:water solution. Four corn seeds [Zea mays (L.)] which had been immersed in test solutions for 2-3 seconds and allowed to dry were placed in containers together with 10 adult weevils. The containers were covered and kept at a temperature of about 25° C. Mortality was recorded after 48 hours. Test concentrations ranged from 0.01% down to that at which 50% mortalilty occurred. The LC50 values are expressed below in Table 3 under the heading "MW" in terms of percent of the test compound in solution.

[2] = system: Housefly [Musca domestica]; assay: Housefly insecticidal test; conditions: μg per 25 female flies; mortality after 48 hours
Outline: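 LC50 (μg compound per 25 female flies) derives from dosage-mortality curves of 48 h kill. Flies, females 1-2 days old, were held 25 per cage over a dish coated with dried acetone deposit, starting at 100 μg per cage and descending.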

[3] = system: Cabbage Looper [Trichoplusia ni (Hubner)]; assay: Cabbage looper insecticidal test; conditions: second-instar larvae, percent in solution; 3-5 days
Outline: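 Compounds in 50-50 acetone-water were applied by dipping squash cotyledons (about 1×1.5 in) for 2-3 s; dried leaves went into petri dishes on moist filter paper with 5 second-instar larvae under high humidity. Mortality was scored after 3-5 days; LC50 from dosage-mortality curves, as percent compound in solution.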

[4] = system: Tobacco Budworm [Heliothis virescens (Fabricius)] eggs; assay: Tobacco budworm egg test; conditions: 2-day old eggs, percent in solution
Outline: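 Paper towel patches bearing 2-day old eggs were dipped in acetone solutions of compound, then set in petri dishes over larval rearing medium at 78° F. Mortality was scored once all control eggs had hatched and larvae were feeding. LC50, from dosage-mortality curves, is given as percent compound in solution.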

| SMILES | LC50, MW [1] [%] | LC50, HF [2] [µg] | LC50, CL [3] [%] | LC50, TBW, E (TBW-E) [4] [%] |
| --- | --- | --- | --- | --- |
| Cc1cc(N=C(OCc2cccc(Oc3ccc(Cl)cc3)c2)C(C)C)ccc1F [Compound 397] | > 0.01 | < 100 | 0.0019 | < 0.1 |
| CC(C)C(=Nc1ccc(F)c(Br)c1)OCc1cccc(Oc2ccc(Cl)cc2)c1 [Compound 398] | > 0.01 | < 100 | < 0.1 | < 0.1 |
| Cc1cc(N=C(OCc2ccc(F)c(Oc3ccc(Cl)cc3)c2)C(C)C)ccc1F [Compound 399] | > 0.01 | < 100 | 0.0012 | 0.025 |
| Cc1cc(N=C(OCc2ccc(F)c(Oc3ccccc3)c2)C(C)C)ccc1F [Compound 400] | > 0.01 | < 100 | 0.0007 | 0.025 |
| Cc1cccc(N=C(OCc2ccc(F)c(Oc3ccc(Cl)cc3)c2)C(C)C)c1 [Compound 401] | > 0.01 | < 100 | 0.0017 | 0.04 |
| Cc1ccc(N=C(OCc2cccc(Oc3ccc(F)cc3)c2)C(C)C)cc1Cl [Compound 402] | > 0.01 | < 100 | > 0.1 | > 0.1 |
| Cc1ccc(N=C(OCc2cccc(Oc3ccc(Cl)cc3)c2)C(C)C)cc1Cl [Compound 403] | > 0.01 | < 100 | > 0.1 | > 0.1 |
| Cc1ccc(N=C(OCc2ccc(F)c(Oc3ccc(Cl)cc3)c2)C(C)C)cc1Cl [Compound 404] | > 0.01 | < 100 | > 0.1 | 0.025 |
| Cc1cccc(N=C(OCc2cccc(Oc3ccc(F)cc3)c2)C(C)C)c1 [Compound 405] | > 0.01 | < 100 | > 0.1 | > 0.1 |
| Cc1ccc(N=C(OCc2ccc(F)c(Oc3ccc(Cl)cc3)c2)C(C)C)cc1C [Compound 406] | > 0.01 | < 100 | > 0.1 | < 0.1 |
| Cc1cc(N=C(OCc2ccc(F)c(Oc3ccc(Cl)cc3)c2)C(C)C)ccc1Br [Compound 407] | > 0.01 | > 100 | > 0.1 | 0.05 |
| COc1ccc(N=C(OCc2ccc(F)c(Oc3ccc(F)cc3)c2)C(C)C)cc1Cl [Compound 408] | > 0.01 | < 100 | 0.0015 | 0.02 |
| COc1ccc(N=C(OCc2ccc(F)c(Oc3ccccc3)c2)C(C)C)cc1Cl [Compound 409] | > 0.01 | < 100 | 0.0017 | 0.025 |
| COc1ccc(N=C(OCc2ccc(F)c(Oc3ccc(Cl)cc3)c2)C(C)C)cc1Cl [Compound 410] | > 0.01 | < 100 | > 0.1 | > 0.1 |
| CCc1ccccc1N=C(OCc1cccc(Oc2ccc(F)cc2)c1)C(C)C [Compound 411] | > 0.01 | < 100 | > 0.1 | > 0.1 |
| COc1ccc(N=C(OCc2ccc(F)c(Oc3ccc(Cl)cc3)c2)C(C)C)cc1 [Compound 412] | > 0.01 | < 100 | > 0.1 | > 0.1 |

| SMILES | LC50, MW [1] [%] | LC50, HF [2] [µg] | LC50, CL [3] [%] | LC50, TBW, E (TBW-E) [4] [%] |
| --- | --- | --- | --- | --- |
| CC(C)C(=Nc1ccc(F)c(I)c1)OCc1cccc(Oc2ccc(Cl)cc2)c1 [Compound 413] | > 0.01 | < 100 | 0.0007 | 0.04 |
| CC(C)C(=Nc1ccc(S(C)(=O)=O)cc1)OCc1ccc(F)c(Oc2ccc(F)cc2)c1 [Compound 414] | > 0.01 | < 100 | 0.0024 | > 0.1 |
| C=C(C)C(=Nc1ccc(F)c(Cl)c1)OCc1ccc(F)c(Oc2ccc(Cl)cc2)c1 [Compound 415] | > 0.01 | < 100 | 0.00075 | 0.035 |
| C=C(C)C(=Nc1ccc(F)c(Cl)c1)OCc1ccc(F)c(Oc2ccccc2)c1 [Compound 416] | > 0.01 | < 100 | 0.00027 | 0.018 |
| C=C(C)C(=Nc1ccc(F)c(Cl)c1)OCc1cccc(Oc2ccccc2)c1 [Compound 417] | > 0.01 | < 100 | 0.0008 | 0.04 |
| CC(C)C(=Nc1ccc(OC(F)(F)C(F)Cl)cc1)OCc1cccc(Oc2ccccc2)c1 (stereo not shown) [Compound 418] | > 0.01 | > 100 | > 0.1 | > 0.1 |
| CC(C)C(=Nc1ccc(OC(F)(F)C(F)Cl)cc1)OCc1ccc(F)c(Oc2ccccc2)c1 (stereo not shown) [Compound 419] | > 0.01 | > 100 | > 0.1 | > 0.1 |
| CC(C)C(=Nc1ccc(OCC(F)(F)F)c(Cl)c1)OCc1cccc(Oc2ccc(F)cc2)c1 [Compound 420] | > 0.01 | > 100 | 0.00075 | 0.05 |
| CC(C)C(=Nc1ccc(OCC(F)(F)F)c(Cl)c1)OCc1cccc(Oc2ccc(Cl)cc2)c1 [Compound 421] | > 0.01 | > 100 | 0.002 | < 0.1 |
| CC(C)C(=Nc1ccc(OCC(F)(F)F)cc1)OCc1ccc(F)c(Oc2ccccc2)c1 [Compound 422] | > 0.01 | < 100 | 0.00075 | 0.05 |
| CC(C)C(=Nc1ccc(OCC(F)(F)F)cc1)OCc1cccc(Oc2ccccc2)c1 [Compound 423] | > 0.01 | > 100 | 0.002 | > 0.1 |
| CC(C)C(=Nc1ccc(OCC(F)(F)F)c(Cl)c1)OCc1ccc(F)c(Oc2ccccc2)c1 [Compound 424] | > 0.01 | > 100 | 0.00038 | 0.035 |
| CC(C)C(=Nc1ccc(OCC(F)(F)F)c(Cl)c1)OCc1cccc(Oc2ccccc2)c1 [Compound 425] | > 0.01 | > 100 | 0.00075 | > 0.1 |
| CCOc1cccc(N=C(OCc2ccc(F)c(Oc3ccc(F)cc3)c2)C(C)C)c1 [Compound 426] | > 0.01 | > 100 | 0.002 | > 0.1 |
| CC(C)C(=Nc1ccc(C(F)(F)F)cc1Cl)OCc1cccc(Oc2ccc(F)cc2)c1 [Compound 427] | > 0.01 | > 100 | < 0.1 | > 0.1 |
